8 molecules from PubChem BioAssay (NCI) can be followed below.

Some test systems named below: LOX IMVI melanoma; HS 578T breast; OVCAR-5 ovarian; K-562 leukemia; SF-539 CNS; NCI-H23 lung; SK-MEL-5 melanoma; BT-549 breast; NCI-H522 lung; U251 CNS.
Common to all, as to assay: DTP human tumour cell line panel, 48 h

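A five-concentration, 48-hour dose response in 96-well plates underlies each endpoint, interpolated linearly between surrounding concentrations. The concentration for 50% growth inhibition is given as GI50. Definition used: TGI = concentration required for complete inhibition of growth.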

The GI50 is the concentration giving 50% growth inhibition. As a reminder, the TGI is the concentration at which net growth stops. Read a high TGI as lower sensitivity of the cells.

With `O=C(Nc1cccc2ccccc12)c1cc2ccccc2cc1O`, the GI50 with LOX IMVI melanoma was 2.72 µM; with HS 578T breast it was 1.74 µM; in the assay on OVCAR-5 ovarian it was 3.32 µM; in the assay with K-562 leukemia it was 1.95 µM; in the assay with SF-539 CNS it was 3.28 µM; in the assay with NCI-H23 lung it was 1.9 µM. Besides, the GI50 in the assay on SK-MEL-5 melanoma was 1.57 µM; in the assay on BT-549 breast, 3.6 µM; in the assay with NCI-H522 lung, 1.66 µM; in the assay on U251 CNS it was 1.56 µM. Also, the TGI with LOX IMVI melanoma was 12.2 µM; in the assay with HS 578T breast, 6.43 µM; in the assay on OVCAR-5 ovarian, 13 µM; with K-562 leukemia it was 23.4 µM; with SF-539 CNS, 12.8 µM; with NCI-H23 lung, 8.84 µM. Also, the TGI in the assay with SK-MEL-5 melanoma worked out at 3.69 µM; with BT-549 breast it was 16.4 µM; in the assay on NCI-H522 lung it was 4.83 µM; in the assay on U251 CNS, 4.72 µM.
In the case of `C#CCOc1c(OC)cc(C(=O)/C(C)=C/c2cccc(N=[N+]=[N-])c2)cc1OC`, the GI50 was 0.642 µM in the assay with LOX IMVI melanoma; 0.25 µM with HS 578T breast; 1.23 µM in the assay on OVCAR-5 ovarian; 0.0383 µM with K-562 leukemia; 0.13 µM in the assay on SF-539 CNS; 0.632 µM with NCI-H23 lung. The GI50 was 0.288 µM in the assay with SK-MEL-5 melanoma, 0.131 µM in the assay on BT-549 breast, 0.155 µM in the assay with NCI-H522 lung and 0.0793 µM with U251 CNS. For the same molecule, the TGI with LOX IMVI melanoma is > 100 µM; in the assay on HS 578T breast, > 100 µM; in the assay with OVCAR-5 ovarian, > 100 µM; in the assay on K-562 leukemia, > 100 µM; in the assay with SF-539 CNS it was 0.478 µM; in the assay with NCI-H23 lung, > 100 µM. For the same molecule, the TGI in the assay with SK-MEL-5 melanoma was 54.3 µM; in the assay with BT-549 breast, 7.1 µM; in the assay with NCI-H522 lung it was 0.8 µM; with U251 CNS, > 100 µM.
For the molecule `COC(=O)/C(Br)=C/c1c[nH]c2ccc(Br)cc12`, the GI50 in the assay with LOX IMVI melanoma is 7.18 µM; in the assay on HS 578T breast, 1.71 µM; in the assay on OVCAR-5 ovarian, 13.6 µM; in the assay on K-562 leukemia it was > 100 µM; with SF-539 CNS, 14.9 µM; in the assay on NCI-H23 lung, 15.3 µM. The GI50 was 12.2 µM in the assay on SK-MEL-5 melanoma, 11.2 µM with BT-549 breast, 10.2 µM in the assay on NCI-H522 lung and 10.2 µM in the assay with U251 CNS. Further, the TGI in the assay with LOX IMVI melanoma was 20.2 µM; with HS 578T breast it was 17.1 µM; in the assay on OVCAR-5 ovarian it was 31.3 µM; in the assay on K-562 leukemia it was > 100 µM; in the assay on SF-539 CNS, 32.9 µM; in the assay on NCI-H23 lung it was 33 µM. The TGI was 24.6 µM with SK-MEL-5 melanoma, 23.6 µM with BT-549 breast, 32.1 µM with NCI-H522 lung and 28.6 µM in the assay with U251 CNS.
Turning to `Cc1cccc2c(=O)c3c(sc12)c(NCCN)nc1ccccc13`, the GI50 in the assay with LOX IMVI melanoma was 0.783 µM; with HS 578T breast, 1.5 µM; in the assay with OVCAR-5 ovarian, 0.834 µM; in the assay on K-562 leukemia it was 0.827 µM; in the assay with SF-539 CNS, 0.917 µM; in the assay with NCI-H23 lung, 0.87 µM. For the same molecule, the GI50 with SK-MEL-5 melanoma was 0.953 µM; with BT-549 breast, 1.33 µM; in the assay on NCI-H522 lung, 0.863 µM; in the assay on U251 CNS, 0.84 µM. Besides, the TGI is 1.48 µM in the assay with LOX IMVI melanoma; 4.78 µM in the assay on HS 578T breast; 1.6 µM in the assay with OVCAR-5 ovarian; 1.95 µM in the assay with K-562 leukemia; 1.77 µM in the assay with SF-539 CNS; 1.96 µM in the assay with NCI-H23 lung. Moreover, the TGI in the assay with SK-MEL-5 melanoma was found to be 1.94 µM; with BT-549 breast it was 4.07 µM; in the assay with NCI-H522 lung, 1.75 µM; in the assay on U251 CNS, 1.59 µM.
For the molecule `O=S(=O)(c1ccccc1)C1CN(Cc2ccccc2)CCN(Cc2ccccc2)C1`, the concentration for total growth inhibition (TGI) was > 61.5 µM in the assay on LOX IMVI melanoma; > 100 µM with HS 578T breast; > 100 µM in the assay on OVCAR-5 ovarian; > 100 µM in the assay with K-562 leukemia; > 100 µM in the assay with SF-539 CNS; > 100 µM in the assay on NCI-H23 lung. Moreover, the TGI is 59.3 µM with SK-MEL-5 melanoma, > 100 µM in the assay on BT-549 breast, 34.1 µM with NCI-H522 lung and > 100 µM in the assay with U251 CNS.
In the case of `N=C1N=Nc2nc(C3(c4nc5n(c4O)C(=N)N=N5)Cc4ccccc4C3=O)c(O)n21` (stereo not drawn), the concentration for total growth inhibition (TGI) in the assay with LOX IMVI melanoma, in the assay with HS 578T breast, in the assay on OVCAR-5 ovarian, with K-562 leukemia, with SF-539 CNS and in the assay with NCI-H23 lung was > 100 µM in each case. Further, the TGI with SK-MEL-5 melanoma, in the assay with BT-549 breast, with NCI-H522 lung and with U251 CNS was > 100 µM each time. Also, the GI50 in the assay on BT-549 breast was > 100 µM; in the assay with NCI-H522 lung it was 87.5 µM; in the assay with U251 CNS, > 100 µM.
Take `COc1ccc2c(c1)c(=O)oc1cc(OC/C(=N\O)c3ccc(F)cc3)ccc12`: the GI50 was 17.8 µM with LOX IMVI melanoma; 27 µM with HS 578T breast; 34.4 µM in the assay with OVCAR-5 ovarian; 25.6 µM in the assay with K-562 leukemia; 21.4 µM with SF-539 CNS; 20.4 µM in the assay with NCI-H23 lung. For the same molecule, the GI50 was 16.6 µM in the assay on SK-MEL-5 melanoma, 18.8 µM in the assay with BT-549 breast, 14.9 µM in the assay on NCI-H522 lung and 20.2 µM in the assay on U251 CNS. Also, the total growth inhibition concentration (TGI) with LOX IMVI melanoma was 33 µM; in the assay on HS 578T breast, 75.6 µM; in the assay on OVCAR-5 ovarian, > 100 µM; in the assay with K-562 leukemia, > 100 µM; with SF-539 CNS it was 40.9 µM; in the assay with NCI-H23 lung it was 54.3 µM. Moreover, the TGI with SK-MEL-5 melanoma came out at 30.8 µM; in the assay on BT-549 breast it was 44.2 µM; in the assay on NCI-H522 lung, 37.8 µM; in the assay with U251 CNS, 48.1 µM.
Take `CCNCCNc1cc(C2CCCC2)c(C#N)c2nc3ccccc3n12`: the GI50 is 1.76 µM in the assay on LOX IMVI melanoma; 3.23 µM in the assay on HS 578T breast; 5.13 µM with OVCAR-5 ovarian; 2.49 µM in the assay on K-562 leukemia; 1.67 µM in the assay with SF-539 CNS; 7.42 µM in the assay with NCI-H23 lung. Further, the GI50 in the assay on SK-MEL-5 melanoma is 1.75 µM; in the assay with BT-549 breast, 2.45 µM; in the assay on NCI-H522 lung, 2.26 µM; in the assay on U251 CNS, 2.21 µM. In addition, the TGI in the assay on LOX IMVI melanoma worked out at 3.3 µM; with HS 578T breast, 10.4 µM; in the assay on OVCAR-5 ovarian it was 19.9 µM; with K-562 leukemia, 5.81 µM; in the assay with SF-539 CNS it was 3.25 µM; with NCI-H23 lung it was 24.3 µM. Also, the TGI with SK-MEL-5 melanoma was found to be 3.31 µM; with BT-549 breast, 5.84 µM; with NCI-H522 lung it was 5.33 µM; in the assay on U251 CNS, 4.27 µM.
